Patent publication US7629318B2, “Immunosuppressant compounds, methods and uses related thereto” (priority 2002, dated 2009)
“And” between values parts separate entries of the source, which are not always exact repeats. Equal entries are not always repeated. Square brackets hold non-standard residues; d marks the D form. Peptide text beside a SMILES is read from it. * marks the point of attachment. N(Me)CH2CH2Ph = CN(CCc1ccccc1)*; Tic = O=C(O)[C@@H]1Cc2ccccc2CN1; Cha = N[C@@H](CC1CCCCC1)C(=O)O; X2 = OCCOCCN(Cc1ccccc1)*; X6 = OCCN(CCc1ccccc1)*

Experiments:
[1] = Stability of compounds in mouse blood plasma; type: in vitro ADME
Description: (§1) The stability of the peptidomimetic compounds was determined in rat (Charles River Laboratories, Sulzfeld), mouse (Charles River Laboratories, Sulzfeld) and human (Bayerisches Rotes Kreuz, München) blood plasma (E. R. Garrett and M. R. Gardner, J Pharmaceutical Sciences 71 (1982) 14-25).
(§2) Compound stock solutions were diluted into blood plasma to give a final compound concentration of 5 μM and the mixtures were incubated at 37° C. At 0, 6 and 24 hours 1 ml samples were drawn and the plasma proteins were precipitated by the addition of 3 ml acetonitrile p.a. and whirlmixing. The precipitate was pelleted by centrifugation at 2000 g for 5 minutes. The supernatant was evaporated off to dryness and the residue was reconstituted in 400 μl 50% acetonitrile, 0.1% TFA in water.
(§3) PBS controls were prepared for unstable compounds accordingly.

[2] = Stability of compounds in rat blood plasma; type: in vitro ADME
Description: as §1, §2, §3

[3] = molecular target: Cathepsin B1 (EC 3.4.22.1 from bovine spleen) (Bos taurus, UniProt P07688); conditions: for Stability (Arbitrary units) Cath B 4 h: Cathepsin B
[4] = molecular target: DR1 (DRA1*0101 DRB1*0101) (Homo sapiens, UniProt P01903+P01911, A100R/D57E/F55L/F60I/F76Y/I96L/L162R/M171V/P40L/Q125E/R42F/V115G/Y59C); test: Competitive binding to MHC-II protein DR1; conditions: Protein binding IC50 (nM) 0101, 0101
Description: (§4) Interaction mixtures lacking the peptidomimetic compound and both peptide mimetic compound and MHC-II were used as positive and negative controls, respectively. All interaction mixtures were set up in duplicates and were incubated for 16 hours at room temperature.
(§5) After washing with PBS, 60 μl of the MHC-II-compound interaction mixtures were transferred from the interaction plate to the appropriate wells of the capture plate and incubated for 2 h at 4° C. The wells were washed six times with 200 μl/well of cooled (4 to 8° C.) 1×DELFIA wash (Wallac-ADL-GmbH, Freiburg), incubated with 100 μl of cooled Europium-streptavidin conjugate (Wallac-ADL-GmbH, Freiburg; diluted 1/1000 with DELFIA assay buffer) for 30 minutes at 4° C., again washed six times with cooled 1×DELFIA wash and, finally, incubated with 200 μl cooled DELFIA enhancement solution (Wallac-ADL-GmbH, Freiburg) for one hour at room temperature before reading the time-resolved europium fluorescence at λex Eu^3+: 340 nm and λem Eu^3+: 613 (615) nm (Wallac Victor^2 1420 Multilabel Counter, Wallac-ADL-GmbH, Freiburg).

[5] = molecular target: Cathepsin D (EC 3.4.23.5 from bovine spleen) (Bos taurus, UniProt P80209)
Description: The stability of the peptidomimetic compounds towards lysosomal degradation was examined by incubation with Cathepsin B1 (EC 3.4.22.1 from bovine spleen; Sigma-Aldrich, Taufkirchen; dissolved at 10000 U/l in ddH2O) and D (EC 3.4.23.5 from bovine spleen; Sigma-Aldrich, Taufkirchen; dissolved at 10000 U/l in ddH2O) for four hours at 37° C. using a compound concentration of 50 μM and an enzyme/substrate ratio of 0.4 U/μmol. The samples contained 25 ppm 4-isopropyl benzyl alcohol (IPBA; Sigma-Aldrich, Taufkirchen) as internal standard.
Assay buffer was prepared by adding 35 μl of a 1% IPBA in DMSO solution and 28 μl of a 10000 U/l Cathepsin B1 or Cathepsin D stock solution to 14 ml of 100 mM sodium acetate, 1 mM EDTA, 1 mM DTT, pH 5.00 or 100 mM sodium acetate, pH 4.50, respectively. 8.8 μl of a 5 mM (or 4.4 μl of a 10 mM) compound stock solution (in 10% DMSO/water) were placed into a 1.5 ml Eppendorf tube. The reaction was started by adding 875 μl fully supplemented assay buffer to each tube, whirlmixing and incubation at 37° C. At 0 and 4 hours 400 μl samples were taken and the enzyme was inactivated by addition of 40 μl […] TFA aq. The samples were kept frozen at −20° C. until analysis by RP-HPLC (200 μl injection volume; Nucleosil 100-5 C18, 12.5×4.6 cm; Gradient: 20-50% acetonitrile in 30 min).
Compounds co-eluting with the internal standard during RP-HPLC analysis were tested without the standard as Example 16.

[6] = Stability of compounds in human blood plasma; type: in vitro ADME
Description: as §1, §2, §3

[7] = molecular target: DR4Dw14 (DRA1*0101 DRB1*0404) (Homo sapiens, UniProt P01903+P01911, A100R/A169T/F76Y/I96L/K127E/L162R/M171V/N62H/P40V/Q125Y/R42H/S133A/S149N/S66Y/V209L/W38E); test: Competitive binding to MHC-II protein DR4Dw14; conditions: 0404; read-out: Protein binding IC50 (nM) 0404
Description: as §4, §5

[8] = tested on: T-cell proliferation, DR14-LN
[9] = molecular target: DR4Dw4 (DRA1*0101 DRB1*0401) (Homo sapiens, UniProt P01903+P01911, A100K/A169T/F76Y/I96L/K127E/L162R/M171V/N62H/P40V/Q125Y/R42H/S133A/S149N/S66Y/V115G/V209L/W38E); test: Competitive binding to MHC-II protein DR4Dw4
Description: as §4, §5

[10] = within 4 hours, 37° C., enzyme activity control

Row | Structure (SMILES) | Stability (Arbitrary units) Mouse 6 h [1] [Arbitrary units] | Stability (Arbitrary units) Mouse 24 h [1] [Arbitrary units] | Stability (Arbitrary units) Rat 6 h [2] [Arbitrary units] | Stability (Arbitrary units) Rat 24 h [2] [Arbitrary units] | Stability (Arbitrary units) Cath B 4 h [3] [Arbitrary units] | IC50 [4] | Stability (Arbitrary units) Cath D 4 h [5] [Arbitrary units] | Stability (Arbitrary units) Human 6 h [6] [Arbitrary units] | Stability (Arbitrary units) Human 24 h [6] [Arbitrary units] | IC50 [7] [nM] | degradation by Cathepsin B1 [3, 10] | Immunsupressive assays DR14-LN (Max) % Inhibition ([8]; maximal inhibition) [%] | IC50 ([8]; read-out: Immunsupressive assays DR14-LN (IC50)) [nM] | IC50 [9] [nM] | degradation by Cathepsin D [5, 10]
1 | CSCC[C@H](NC(=O)[C@@H]1Cc2ccccc2CN1C(=O)[C@H](CCCNC(=N)N)NC(=O)[C@H](CC1CCCCC1)NC(C)=O)C(=O)N(C)CCc1ccccc1 [Compound P84, Ac-Cha-Arg-Tic-Met-N(Me)CH2CH2Ph] (Ac-[Cha]R[Tic]M-{N(Me)CH2CH2Ph}) | 111 | 53 | 104 | 99 | 69 | 900 nM | 101 | 131 | 131 | 14000 |  |  |  |  | 
2 | CSCC[C@H](NC(=O)[C@H](C)NC(=O)[C@H](CCCN=C(N)N)NC(=O)[C@H](CC1CCCCC1)NC(C)=O)C(=O)N[C@@H](C)C(=O)N[C@@H](CO)C(=O)N[C@@H](CC(C)C)C(N)=O [Compound P3, Ac-Cha-RAMASL-NH2, reference compound] (Ac-[Cha]RAMASL-NH2) |  |  |  |  |  |  |  |  |  |  | completely degraded |  |  |  | 
3 | CSCC[C@H](NC(=O)[C@@H]1Cc2ccccc2CN1C(=O)[C@H](CCCNC(=N)N)NC(=O)[C@H](CC1CCCCC1)NC(C)=O)C(=O)N(CCOCCO)Cc1ccccc1 [Compound P99, Ac-Cha-Arg-Tic-Met-N(Bn)CH2CH2OCH2CH2OH] (Ac-[Cha]R[Tic]M-X2) | 71 | 13 | 80 | 62 | 106 | 690 nM and 560 nM | 107 | 104 |  | 1900 |  | 100 | 105000 |  | 
4 | CSCC[C@H](NC(=O)[C@@H]1Cc2ccccc2CN1C(=O)[C@H](CCCNC(=N)N)NC(=O)[C@H](CC1CCCCC1)NC(C)=O)C(=O)N(CCO)CCc1ccccc1 [Compound P85, Ac-Cha-Arg-Tic-Met-N(CH2CH2OH)CH2CH2Ph] (Ac-[Cha]R[Tic]M-X6) | 98 | 57 | 111 | 71 | 108 | 1800 nM | 104 |  | 129 | 31000 |  |  |  | 13000 | 
5 | CC[C@H](C)[C@H](NC(=O)CNC(=O)[C@@H](NC(=O)[C@H](Cc1ccccc1)NC(=O)[C@H](CC(C)C)NC(=O)[C@H](CO)NC(=O)[C@H](CC(N)=O)NC(=O)[C@H](C)NC(=O)[C@H](CCCCN)NC(=O)[C@@H](NC(=O)[C@H](Cc1ccc(O)cc1)NC(=O)[C@@H](N)CCC(N)=O)[C@@H](C)CC)[C@@H](C)CC)C(=O)N[C@H](C(=O)N[C@@H](CCC(=O)O)C(=O)N[C@@H](CC(C)C)C(=O)N[C@@H](CCCCN)C(=O)O)[C@@H](C)O [reference compound] (H-QYIKANSLFIGITELK-OH; N-terminus and C-terminus assumed) |  |  |  |  |  |  |  |  |  |  |  |  |  |  | completely degraded
